In patent US20060009478A1, “Methods for the treatment of back pain” (priority 2003, published 2006):

Key:
[1] = test system: patients with moderate to severe chronic pain due to osteoarthritis of the hip or knee; experiment: Vital signs, clinical laboratory tests, EKG (QTc interval), 3-week osteoarthritis study; type: in vivo, human; conditions: 3-week treatment
From the text: The opioid toxicity assessment included: (A) CNS review by assessing for (1) confusion, altered mental state, (2) excessive drowsiness, lethargy, stupor, (3) slurred speech (new onset), (4) respiratory, (5) hypoventilation, shortness of breath, apnea, (6) hypoxia, hypercarbia; and (b) cardiac review by assessing for bradycardia, hypotension, and shock. If patients experienced any of these or other symptoms that, in the principal investigator's opinion, would pose a significant risk if additional opioid doses were administered, doses were not escalated on Week 2, Day 1 or Week 3, Day 1.

[2] = test system: patients with moderate to severe chronic pain due to osteoarthritis of the hip or knee; experiment: Global assessment of study medication, 3-week osteoarthritis study; type: in vivo, human
Description: Global Assessment of Study Medication was also assessed weekly at clinic visits. The patient was prompted with the question, “How would you rate the study medication you received this past week? (Please consider the quality of your pain relief, your side effects, your activity level, your mood and sense of well-being, etc. in this evaluation.)”. Responses were selected from poor, fair, good, very good, and excellent.
(§1) The global assessment, quality of analgesia, and pain control, recorded at the end of each week, were summarized in terms of category proportions.
For secondary analysis of data, pain intensity changes, SF-12, and WOMAC were analyzed with the ANOVA methods as described above. Within treatment arms, weeks were compared in pairwise fashion using paired-sample methods. The global assessments, quality of analgesia ratings, and pain control was analyzed at each week, globally and in pairwise fashion, using the Cocharan-Mantel-Haenszel row mean scores (CMH-RMS) test, using equally spaced scores. An “observed data” analysis, without any data imputation, was conducted on pain intensity changes, global assessments, quality of analgesia ratings, pain control, SF-12, and WOMAC using the same analysis methods described previously.

[3] = test system: patients with moderate to severe chronic pain due to osteoarthritis of the hip or knee; experiment: Pain control, 3-week osteoarthritis study; type: in vivo, human; conditions: ITT (N = 102 per active group), LOCF
Description: Pain Control was also assessed weekly at clinic visits. The patient was prompted with the question, “During the past week, how would you describe your pain control during the course of each day?” Responses were selected from: Pain was controlled for (1) a few hours or less each day; (2) several hours each day; (3) most of each day; and (4) throughout each day.
as §1
For secondary analysis of data, pain intensity changes, SF-12, and WOMAC were analyzed with the ANOVA methods as described above. Within treatment arms, weeks were compared in pairwise fashion using paired-sample methods. The global assessments, quality of analgesia ratings, and pain control was analyzed at each week, globally and in pairwise fashion, using the Cocharan-Mantel-Haenszel row mean scores (CMH-RMS) test, using equally spaced scores.

[4] = test system: patients with moderate to severe chronic pain due to osteoarthritis of the hip or knee; experiment: Pain intensity (daily diary, 11-point numerical scale), 3-week osteoarthritis study; type: in vivo, human; conditions: ITT, LOCF, average of last two days of dosing week
Description: A multicenter, randomized, double-blind, active- and placebo-controlled, dose escalation, clinical study was designed and conducted. […] During a 4- to 7-day washout period, patients stopped taking all of their pain medication other than acetaminophen (500 mg every 4-6 hours PRN (a maximum of 5 caplets per day)).
Pain Intensity was assessed by prompting the patient with the question, “How would you rate your overall pain intensity at this time?”, and the PI score was recorded in the clinic. Pain Intensity was also assessed by prompting the patient with the question, “How would you rate your overall pain intensity during the past 24 hours?”, and a daily PI diary score was recorded by the patient at bedtime. For both Pain Intensity prompts, the response was scored on an 11-point numerical scale (0=no pain and 10=severe pain).
For the efficacy analysis, endpoints were represented and analyzed by week. Missing efficacy data was imputed across weeks using the last-observation-carried-forward (LOCF) method. Thus, the primary procedure for the analysis of efficacy data was based on a LOCF approach.
The daily pain intensity ratings were summarized as follows. For each week, the pain intensity recorded on the last two full days of dosing within the week, restricted to Day 5 or later, was averaged. If only a single observation was available, it was used; otherwise, the endpoint was not defined. The pain intensity averages were represented as both (1) a change from baseline and (2) a percent change from baseline. The baseline value was defined as the average pain intensity over the last two values recorded during the baseline period; if necessary, a single value was used.
For primary analysis of data, the primary efficacy endpoint was the percent change from baseline in pain intensity at Week 3. Percent change in pain intensity was analyzed using ANOVA methods. The ANOVA model included factors for treatment, sex, and their interaction. Additional covariates could be added to the model for exploratory purposes. Pairwise treatment group comparisons were made using contrasts within the ANOVA framework. Testing employed Type III sums of squares. If the assumptions of the parametric tests were not valid, non-parametric tests were used.

[5] = Plasma concentrations of oxycodone, oxymorphone, noroxycodone, naltrexone and 6β-naltrexol by solid phase extraction LC-MS/MS
From the text: Patients with moderate-to-severe pain due to osteoarthritis of the hip or knee were randomly assigned to one of four treatment groups as shown in Table 3 of Example 1. Plasma samples were obtained for each patient at the beginning of Weeks 1, 2, 3 and at the end of dosing during Week 3.
For the analysis of linearity and dose proportionality, linear equation coefficients were obtained by averaging patient-specific slopes and intercepts obtained by within-patient least squares regression. This was done to account for the correlation among the repeated measurements due to the patient's contributing data at each dose level. The resulting slopes among treatment groups were compared by one-way analysis of variance (ANOVA), and a one-sample t-test assessed the common slope's difference from zero. A measure of deviation from linearity was constructed as the difference between the concentration at the middle dose versus the average of the concentrations at the lower and higher doses. Due to equal spacing of doses, this measure has expectation zero under the hypothesis of linearity. As above, ANOVA and t-tests were used to assess linearity.
To achieve symmetry, modified log transformations were used.

[6] = ITT (N = 102 per active group), LOCF
[7] = 11-point scale 0=no pain, 10=severe pain

COc1ccc2c3c1O[C@H]1C(=O)CC[C@@]4(O)[C@@H](C2)N(C)CC[C@]314 [OXY QID, oxycodone]
Effects on vital signs, laboratory safety tests or QTc interval changes [1]: no clinically meaningful effects
Global assessment Week 1: EXCELLENT (4), number (%) of patients [2, 6]: 3 (2.9%)
Global assessment Week 1: FAIR (1), number (%) of patients [2, 6]: 37 (36.3%)
Global assessment Week 1: GOOD (2), number (%) of patients [2, 6]: 30 (29.4%)
Global assessment Week 1: POOR (0), number (%) of patients [2, 6]: 16 (15.7%)
Global assessment Week 1: VERY GOOD (3), number (%) of patients [2, 6]: 12 (11.8%)
Global assessment Week 2: EXCELLENT (4), number (%) of patients [2, 6]: 6 (5.9%)
Global assessment Week 2: FAIR (1), number (%) of patients [2, 6]: 29 (28.4%)
Global assessment Week 2: POOR (0), number (%) of patients [2, 6]: 16 (15.7%)
Global assessment Week 3: EXCELLENT (4), number (%) of patients [2, 6]: 6 (5.9%)
Global assessment Week 3: FAIR (1), number (%) of patients [2, 6]: 18 (17.6%)
Global assessment Week 3: GOOD (2), number (%) of patients [2, 6]: 36 (35.3%)
Global assessment Week 3: POOR (0), number (%) of patients [2, 6]: 24 (23.5%)
Global assessment Week 3: VERY GOOD (3), number (%) of patients [2, 6]: 14 (13.7%)
Patients reporting a global assessment of very good or excellent at Week 3 ([2]; Week 3): 19.6%
Pain control Week 1: PAIN CONTROLLED A FEW HRS/LESS EACH DAY (1), number (%) of patients [3]: 42 (41.2%)
Pain control Week 1: PAIN CONTROLLED MOST OF EACH DAY (3), number (%) of patients [3]: 17 (16.7%)
Pain control Week 1: PAIN CONTROLLED SEVERAL HRS EACH DAY (2), number (%) of patients [3]: 29 (28.4%)
Pain control Week 1: PAIN CONTROLLED THROUGHOUT EACH DAY (4), number (%) of patients [3]: 10 (9.8%)
Pain control Week 2: PAIN CONTROLLED A FEW HRS/LESS EACH DAY (1), number (%) of patients [3]: 36 (35.3%)
Pain control Week 2: PAIN CONTROLLED MOST OF EACH DAY (3), number (%) of patients [3]: 26 (25.5%)
Pain control Week 2: PAIN CONTROLLED SEVERAL HRS EACH DAY (2), number (%) of patients [3]: 26 (25.5%)
Pain control Week 2: PAIN CONTROLLED THROUGHOUT EACH DAY (4), number (%) of patients [3]: 10 (9.8%)
Pain control Week 3: PAIN CONTROLLED A FEW HRS/LESS EACH DAY (1), number (%) of patients [3]: 35 (34.3%)
Pain control Week 3: PAIN CONTROLLED MOST OF EACH DAY (3), number (%) of patients [3]: 27 (26.5%)
Pain control Week 3: PAIN CONTROLLED THROUGHOUT EACH DAY (4), number (%) of patients [3]: 8 (7.8%)
Pain intensity, actual value at Week 1, mean ([4]; FEMALE, 11-point scale): 6.2
Pain intensity, actual value at Week 1, median ([4]; FEMALE, 11-point scale): 6.3
Pain intensity, actual value at Week 2, mean ([4]; FEMALE, 11-point scale): 5.9
Pain intensity, actual value at Week 2, median ([4]; FEMALE, 11-point scale): 6.3
Pain intensity, actual value at Week 3, mean ([4]; FEMALE, 11-point scale): 5.9
Pain intensity, actual value at Week 3, median ([4]; FEMALE, 11-point scale): 6.0
Pain intensity, percent change from baseline to Week 1, mean [4]: −18.4%
Pain intensity, percent change from baseline to Week 1, median [4]: −16.7%
Pain intensity, percent change from baseline to Week 2, mean [4]: −22.9%
Pain intensity, percent change from baseline to Week 2, median [4]: −20.0%
Pain intensity, percent change from baseline to Week 3, median [4]: −20.0%
Pain intensity, actual value at Week 1, mean [4, 7]: 6.1
Pain intensity, actual value at Week 1, median [4, 7]: 6.0
Pain intensity, actual value at Week 2, mean [4, 7]: 5.8
Pain intensity, actual value at Week 2, median [4, 7]: 6.0
Pain intensity, actual value at Week 3, mean [4, 7]: 5.6
Pain intensity, actual value at Week 3, median [4, 7]: 5.5
Pain intensity, percent change from baseline to Week 3, mean ([4]; primary efficacy endpoint): −24.6%
Pain intensity, actual value at Week 2, mean ([4]; MALE, 11-point scale): 5.5
Pain intensity, actual value at Week 2, median ([4]; MALE, 11-point scale): 5.5
Pain intensity, actual value at Week 3, mean ([4]; MALE, 11-point scale): 5.0
Pain intensity, actual value at Week 3, median ([4]; MALE, 11-point scale): 4.5
Pain intensity, actual value at Week 1, mean ([4]; males, 11-point scale): 5.9
Pain intensity, actual value at Week 1, median ([4]; males, 11-point scale): 6.0
Mean plasma concentration versus dose level over the course of the study ([5]; FIGS. 1 and 2): increased linearly with increasing dose levels
Plasma concentration of oxycodone (ng/mL) versus dose of oxycodone (mg/day): slope of linear equation ([5]; average of patient-specific regressions, slope p<0.001, t-test): 0.4223
Plasma concentration of oxycodone versus dose of oxycodone (mg/day): intercept of linear equation ([5]; average of patient-specific within-patient least squares regressions, all active treatments): 2.28 ng/mL
